In patent US20080269202A1, “Novel 2,3-benzodiazepine derivatives and their use as antipsychotic agents” (Teva Pharmaceutical Industries Ltd., priority 2007, published 2008):
Structures can show the parent of a compound that is named as a salt.

melting point | SMILES
130 to 134 °C | CNC(=O)N1N=C(c2ccc(N)cc2)c2cc(OC)c(OC)cc2C[C@@H]1C
157 to 159 °C | CNC(=O)N1N=C(c2ccc(N)c(C)c2)c2cc(OC)c(OC)cc2C[C@@H]1C
110 to 113 °C | CNC(=O)N1N=C(c2cc(C)c(N)c(C)c2)c2cc(OC)c(OC)cc2C[C@H]1C
122 to 124 °C | CCNC(=O)N1N=C(c2ccc(N)cc2)c2cc(OC)c(OC)cc2C[C@H]1C
107 to 110 °C | CCNC(=O)N1N=C(c2ccc(N)c(C)c2)c2cc(OC)c(OC)cc2C[C@H]1C
101 to 104 °C | CCCNC(=O)N1N=C(c2ccc(N)cc2)c2cc(OC)c(OC)cc2C[C@H]1C
92 to 95 °C | CCCNC(=O)N1N=C(c2ccc(N)c(C)c2)c2cc(OC)c(OC)cc2C[C@H]1C
115 to 117 °C | COc1cc2c(cc1OC)C(c1ccc(N)c(C)c1)=NN(C(=O)NC(C)C)[C@H](C)C2
116 to 119 °C | COc1cc2c(cc1OC)C(c1ccc(N)cc1)=NN(C(=O)NC1CC1)[C@H](C)C2
112 to 114 °C | COc1cc2c(cc1OC)C(c1ccc(N)c(C)c1)=NN(C(=O)NC1CC1)[C@H](C)C2
258 to 260 °C | COc1cc2c(cc1OC)C(c1ccc(N)cc1)=NN(C(=O)N(C)C)[C@H](C)C2
174 to 176 °C | CNC(=O)N1N=C(c2ccccc2[N+](=O)[O-])c2cc(OC)c(OC)cc2CC1C (stereo not shown)
83 to 85 °C | CNC(=O)N1N=C(c2cccc([N+](=O)[O-])c2)c2cc(OC)c(OC)cc2CC1C (stereo not shown)
90 to 91 °C | CNC(=O)N1N=C(c2cccc(Cl)c2)c2cc(OC)c(OC)cc2CC1C (stereo not shown)
164 to 166 °C | CNC(=O)N1N=C(c2ccc(Cl)cc2)c2cc(OC)c(OC)cc2CC1C (stereo not shown)
80 to 83 °C | CNC(=O)N1N=C(c2ccc(F)cc2)c2cc(OC)c(OC)cc2CC1C (stereo not shown)
92 to 96 °C | COc1cc2c(cc1OC)C(c1ccc([N+](=O)[O-])cc1)=NN(C(=O)N(C)C)C(C)C2 (stereo not shown)
86 to 88 °C | CNC(=O)N1N=C(c2ccccc2)c2cc(OC)c(OC)cc2CC1C (stereo not shown)
185 to 186 °C | CNC(=O)N1N=C(c2ccc(OC)c(OC)c2)c2cc(OC)c(OC)cc2CC1C (stereo not shown)
174 to 176 °C | COc1cc2c(cc1OC)C(c1cccc(Cl)c1)=NN(c1nc(C)c(C)s1)C(C)C2 (stereo not shown) (as salt: HCl) [Example 11]
105 to 107 °C | CNC(=O)N1N=C(c2ccc(N)cc2)c2cc(OC)c(OC)cc2CC1C (racemic)
103 to 108 °C | CNC(=O)N1N=C(c2cccc(N)c2)c2cc(OC)c(OC)cc2CC1C (racemic)
88 to 91 °C | CNC(=O)N1N=C(c2ccccc2N)c2cc(OC)c(OC)cc2CC1C (racemic)
169 to 170 °C | CCNC(=O)N1N=C(c2ccc(N)cc2)c2cc(OC)c(OC)cc2CC1C (racemic)
109 to 111 °C | COc1cc2c(cc1OC)C(c1ccc(N)cc1)=NN(C(=O)NC(C)C)C(C)C2 (racemic)
120 to 123 °C | COc1cc2c(cc1OC)C(c1ccc(N)cc1)=NN(C(=O)NC1CC1)C(C)C2 (racemic)
204 to 207 °C | CCCCNC(=O)N1N=C(c2ccc(N)cc2)c2cc(OC)c(OC)cc2CC1C (racemic)
119 to 122 °C | CNC(=O)N1N=C(c2ccc(N)c(C)c2)c2cc(OC)c(OC)cc2CC1C (racemic)

melting point | SMILES
119 to 120 °C | CNC(=O)N1N=C(c2ccc(N)c(Cl)c2)c2cc(OC)c(OC)cc2CC1C (racemic)
235 to 237 °C | CNC(=S)N1N=C(c2ccc(N)cc2)c2cc(OC)c(OC)cc2CC1C (racemic)
119 to 122 °C | COc1cc2c(cc1OC)C(c1ccc(N)cc1)=NN(c1nccs1)C(C)C2 (racemic) [Example 136]
122 to 124 °C | COc1cc2c(cc1OC)C(c1ccc(N)cc1)=NN(c1nc(C)cs1)C(C)C2 (racemic) [Example 137]
120 to 122 °C | COc1cc2c(cc1OC)C(c1ccc(N)cc1)=NN(c1ncc(C)s1)C(C)C2 (racemic) [Example 138]
121 to 124 °C | COc1cc2c(cc1OC)C(c1ccc(N)cc1)=NN(c1nc(C)c(C)s1)C(C)C2 (racemic) [Example 139]
109 to 113 °C | COc1cc2c(cc1OC)C(c1ccc(N)c(C)c1)=NN(c1nccs1)C(C)C2 (racemic) [Example 140]
121 to 123 °C | COc1cc2c(cc1OC)C(c1ccc(N)cc1)=NN(C1=NCCS1)C(C)C2 (racemic) [Example 141]
166 to 168 °C | COc1cc2c(cc1OC)C(c1ccc(N)cc1)=NN(C1=NC(=O)CS1)C(C)C2 (racemic) [Example 142]
184 to 188 °C | COc1cc2c(cc1OC)C(c1ccc(N)cc1)=NN(C1=NC(=O)C(C)S1)C(C)C2 (racemic) [Example 143]
152 to 153 °C | COc1cc2c(cc1OC)C(c1ccc(N)cc1)=NN(c1nncs1)C(C)C2 (racemic) [Example 144]
220 to 222 °C | COc1cc2c(cc1OC)C(c1ccc(N)cc1)=NN(c1nnc(C)s1)C(C)C2 (racemic) [Example 145]
208 to 209 °C | CCc1nnc(N2N=C(c3ccc(N)cc3)c3cc(OC)c(OC)cc3CC2C)s1 (racemic) [Example 146]
108 to 110 °C | COc1cc2c(cc1OC)C(c1ccc(N)c(C)c1)=NN(c1nncs1)C(C)C2 (racemic) [Example 147]
125 to 130 °C | COc1cc2c(cc1OC)C(c1ccc(N)c(Cl)c1)=NN(c1nncs1)C(C)C2 (racemic) [Example 148]
108 to 113 °C | CCOc1cc2c(cc1OCC)C(c1ccc(N)cc1)=NN(c1nncs1)C(C)C2 (racemic) [Example 149]
100 to 105 °C | COc1cc2c(cc1OC)C(c1ccc(N)cc1)=NN(c1nnco1)C(C)C2 (racemic) [Example 150]
209 to 211 °C | COc1cc2c(cc1OC)C(c1ccc(N)cc1)=NN(c1nnc(C)o1)C(C)C2 (racemic) [Example 151]
260 to 262 °C | COc1cc2c(cc1OC)C(c1ccc(N)cc1)=NN(c1nc(=O)n(C)s1)C(C)C2 (racemic) [Example 152]
135 to 137 °C | COc1cc2c(cc1OC)C(c1ccc(N)cc1)=NN(C1=NCCO1)C(C)C2 (racemic) [Example 153]
159 to 163 °C | COc1cc2c(cc1OC)C(c1ccc(N)cc1)=NN(C1=NNC(=O)CS1)C(C)C2 (racemic) [Example 154]
227 to 229 °C | COc1cc2c(cc1OC)C(c1ccc(N)cc1)=NN(c1ncon1)C(C)C2 (racemic) [Example 155]
233 to 236 °C | COc1cc2c(cc1OC)C(c1ccc(N)cc1)=NN(c1noc(C)n1)C(C)C2 (racemic) [Example 156]
234 to 237 °C | COc1cc2c(cc1OC)C(c1ccc(N)c(C)c1)=NN(c1ncon1)C(C)C2 (racemic) [Example 157]
232 to 235 °C | COc1cc2c(cc1OC)C(c1ccc(N)c(Cl)c1)=NN(c1ncon1)C(C)C2 (racemic) [Example 158]
158 to 162 °C | CCOc1cc2c(cc1OCC)C(c1ccc(N)cc1)=NN(c1ncon1)C(C)C2 (racemic) [Example 159]
103 to 107 °C | COc1cc2c(cc1OC)C(c1ccc(N)cc1)=NN(c1ncc(C)o1)C(C)C2 (racemic) [Example 161]
